Patent US11566004B2, “Process for the preparation of bromodomain inhibitor” (Celgene Quanticel Research, Inc., priority 2018, dated 2023)
Converted amounts (≈) assume the structure as drawn. Read-outs that look alike come from different tables or passages of the source.

Columns and labels:
[1] = test system: Raji, human Burkitts lymphoma cells; conditions: see U.S. Pat. No. 9,034,900; cited from earlier work
[2] = test system: NCI-H460, human non-small cell lung cancer cells; conditions: see U.S. Pat. No. 9,034,900; cited from earlier work
[3] = Solubility of Compound 1 in process solvents (ICH class solvents, NMP, DMAc, formic acid); type: physicochemical; conditions: for solubility: organic solvent or mixture
Description: The final isolation of Compound 1 requires a polish filtration. For this, the batch must be completely soluble.
The solubility curve of Compound 1 in formic acid-Water is quite steep (see FIG. 7), which enables a volumetrically efficient process.

bromodomain 4 (BRD4) = bromodomain 4 (BRD4) (Homo sapiens, UniProt O60885); conditions: preliminary in vitro studies; see U.S. Pat. No. 9,034,900; cited from earlier work
[4] = test system: HL-60, human proleukemia cells; conditions: HL-60 cells; see U.S. Pat. No. 9,034,900; cited from earlier work
[5] = Solubility of bromination starting material, product and impurity in CH2Cl2 (with or without 10% H2SO4); type: physicochemical; conditions: for Solubility in CH2Cl2, 10% H2SO4, 10° C.: CH2Cl2 with 10% H2SO4, 10° C.; for Solubility in CH2Cl2, 10% H2SO4, 20° C.: CH2Cl2 with 10% H2SO4, 20° C.; for Solubility in CH2Cl2, 10% H2SO4, 30° C.: CH2Cl2 with 10% H2SO4, 30° C.
Protocol: This solubility difference is exploited by performing the reaction at a high concentration to drive Compound 5 out of solution once formed, thereby minimizing its ability to react further with the brominating reagent to form Compound 5-a diBr. The reaction is seeded with Compound 5 to initiate its crystallization.

[6] = Solid phase and solution stability of boronic esters; type: physicochemical
Description: The final bond forming step to Compound 1 is a Suzuki-Miyaura coupling between Compounds 2 and 3, as shown in Scheme 3 below (Norio, M. and Suzuki, A., Chem. Rev., 95(7), 2457-2483 (1995)). […] The pinacolatoboronate of the O-alkyl phenol, Compound 7, had acceptable solid phase stability and could be isolated via crystallization.
This was particularly problematic as the isolation process involved a solvent exchange from 2-MeTHF (2-methyl tetrahydrofuran) to iPrOAc (isopropyl acetate), which is not a fast unit operation on scale.

In the case of `Cn1cc(-c2cc(S(C)(=O)=O)ccc2OCC2CC2)c2ccccc2c1=O` [Compound 1, 4-[2-(cyclopropylmethoxy)-S-methylsulfonylphenyl]-2-methylisoquinolin-1-one], the “other cancer-related inhibitory activity” value [1] is given as “observed”, the “other cancer-related inhibitory activity” value [2] is given as “observed” and the “Solubility in almost all ICH Class 3 and common Class 2 (e.g. THF, MeCN) solvents” value ([3]; ICH Class 3 and common Class 2 solvents) is given as “low solubility”. The solubility ([3]; N-methyl-2-pyrrolidone (NMP), read-out: Solubility in N-methyl-2-pyrrolidone (NMP)) was > 50 mg/mL, the solubility ([3]; dimethylacetamide (DMAc), read-out: Solubility in dimethylacetamide (DMAc)) was > 50 mg/mL and the solubility ([3]; formic acid, 20° C., read-out: Solubility in formic acid) was > 250 mg/mL. The “Solubility in a warm MeCN-water mix” value ([3]; warm MeCN-water mix) was “reasonable solubility”, the BRD4 inhibition (bromodomain 4 (BRD4)) was “observed” and the “other cancer-related inhibitory activity” value [4] was “observed”.

With `CS(=O)(=O)c1ccc(O)cc1` [Compound 4, 4-(methylsulfonyl)phenol] the “Solubility in CH2Cl2, 10° C.” value [5] was 30 mg/mL (≈ 174 mM), the “Solubility in CH2Cl2, 20° C.” value [5] was 46 mg/mL (≈ 267 mM) and the “Solubility in CH2Cl2, 30° C.” value [5] was 198 mg/mL (≈ 1150 mM). For the same molecule, the “Solubility in CH2Cl2, 10% H2SO4, 10° C.” value [5] was 19 mg/mL (≈ 110 mM), the “Solubility in CH2Cl2, 10% H2SO4, 20° C.” value [5] was 51 mg/mL (≈ 296 mM) and the “Solubility in CH2Cl2, 10% H2SO4, 30° C.” value [5] was 390 mg/mL (≈ 2260 mM).

For `CS(=O)(=O)c1cc(Br)c(O)c(Br)c1` [Compound 5-a diBr], the “Solubility in CH2Cl2, 10° C.” value [5] was 5 mg/mL (≈ 15.2 mM), the “Solubility in CH2Cl2, 20° C.” value [5] was 7 mg/mL (≈ 21.2 mM) and the “Solubility in CH2Cl2, 30° C.” value [5] was 10 mg/mL (≈ 30.3 mM). For the same molecule, the “Solubility in CH2Cl2, 10% H2SO4, 10° C.” value [5] was 5 mg/mL (≈ 15.2 mM), the “Solubility in CH2Cl2, 10% H2SO4, 20° C.” value [5] was 7 mg/mL (≈ 21.2 mM) and the “Solubility in CH2Cl2, 10% H2SO4, 30° C.” value [5] was 14 mg/mL (≈ 42.4 mM).

In the case of `CS(=O)(=O)c1ccc(O)c(Br)c1` [Compound 5], the “Solubility in CH2Cl2, 10° C.” value [5] is reported as 6 mg/mL (≈ 23.9 mM), the “Solubility in CH2Cl2, 20° C.” value [5] is reported as 8 mg/mL (≈ 31.9 mM) and the “Solubility in CH2Cl2, 30° C.” value [5] is reported as 20 mg/mL (≈ 79.6 mM). The “Solubility in CH2Cl2, 10% H2SO4, 10° C.” value [5] was 5 mg/mL (≈ 19.9 mM), the “Solubility in CH2Cl2, 10% H2SO4, 20° C.” value [5] was 8 mg/mL (≈ 31.9 mM) and the “Solubility in CH2Cl2, 10% H2SO4, 30° C.” value [5] was 11 mg/mL (≈ 43.8 mM).

For `CC1(C)OB(c2cc(S(C)(=O)=O)ccc2OCC2CC2)OC1(C)C` [Compound 7], the Solution stability ([6]; in solution, decomposing primarily to proteodeborylated compound 10) was “poor” and the Solid phase stability ([6]; solid phase) was “acceptable”.
